The target of this assay is T1, recombinant human CCR5 receptor (Homo sapiens, UniProt P51681).
T1 construct: expressed in transfected cells; host or cells: Chinese hamster ovary (CHO) cells; membranes
T1 sequence (P51681 whole entry): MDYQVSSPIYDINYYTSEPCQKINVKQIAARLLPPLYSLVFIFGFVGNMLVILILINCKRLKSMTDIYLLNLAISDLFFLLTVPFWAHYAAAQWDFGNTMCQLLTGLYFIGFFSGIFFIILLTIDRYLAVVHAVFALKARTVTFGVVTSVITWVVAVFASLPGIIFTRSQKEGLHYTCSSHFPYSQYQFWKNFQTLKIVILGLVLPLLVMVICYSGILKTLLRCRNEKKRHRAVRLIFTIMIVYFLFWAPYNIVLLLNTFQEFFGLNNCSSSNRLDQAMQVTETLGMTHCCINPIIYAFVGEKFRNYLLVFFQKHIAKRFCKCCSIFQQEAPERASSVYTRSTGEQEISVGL
The assay is described as follows: Radioligand binding assay for inhibition of the binding of MIP-1α. The following applies: displacement of 0.1 nM iodinated MIP-1α; membranes of Chinese hamster ovary cells expressing CCR5. As to the method: Biological Assay for the Ability of Compounds to Inhibit the Binding of MIP-1α This ability is assessed using an in vitro radioligand binding assay. Membranes are prepared from Chinese hamster ovary cells which express the recombinant human CCR5 receptor. These membranes are incubated with 0.1 nM iodinated MIP-1α, scintillation proximity beads and various concentrations of the compounds of the invention in 96-well plates. The amount of iodinated MIP-1α bound to the receptor is then determined by scintillation counting.
By IC50 is commonly meant the concentration that inhibits the measured activity by half. `O=C(Nc1ccc(Cl)c(Cl)c1)N1CCN(C[C@H]2CN(C3CCCC3)CCO2)CC1` [Example 118, 4-{[(2S)-4-cyclopentylmorpholin-2-yl]methyl}-N-(3,4-dichlorophenyl)piperazine-1-carboxamide]: the IC50 was less than 10 µM.
Regarding `CS(=O)(=O)N1CCC(N2CCC[C@@H](CN3CCN(C(=O)Nc4ccc(Cl)c(Cl)c4)CC3)C2)CC1` [Example 176, N-(3,4-Dichlorophenyl)-4-{[(3S)-1′-(methylsulfonyl)-1,4′-bipiperidin-3-yl]methyl}piperazine-1-carboxamide], the IC50 is less than 10 µM.
For the compound `CCC(C)N1CCOC(CN2CCN(C(=O)Nc3ccc(F)c(Cl)c3)CC2)C1` (stereo in doubt) [Example 236, N-(3-chloro-4-fluorophenyl)-4-({(2R)-4-[(1R)-1-methylpropyl]morpholin-2-yl}methyl)piperazine-1-carboxamide], the IC50 was less than 10 µM.
Under `CC(C)N1CCN[C@@H](C(=O)N2CCN(C(=O)Nc3cccc(Oc4ccccc4)c3)CC2)C1` [Example 260, 4-{[(2R)-4-Isopropylpiperazin-2-yl]carbonyl}-N-(3-phenoxyphenyl) piperazine-1-carboxamide] stands less than 10 µM; under `CC(C)N1CCN[C@@H](C(=O)N2CCN(C(=O)Nc3ccc(C(F)(F)F)cc3)CC2)C1` [Example 212, 4-{[(2R)-4-isopropylpiperazin-2-yl]carbonyl}-N-[4-(trifluoromethyl)phenyl]piperazine-1-carboxamide], less than 10 µM; under `CC(C)N1CCN[C@@H](C(=O)N2CCN(C(=O)Nc3nc(C(F)(F)F)cs3)CC2)C1` [Example 290, 4-{[(2R)-4-Isopropylpiperazin-2-yl]carbonyl}-N-[4-(trifluoromethyl)-1,3-thiazol-2-yl]piperazine-1-carboxamide], less than 10 µM.
Next, `CC(C)N1CCN[C@@H](C(=O)N2CCN(C(=O)Nc3cccc(C(F)(F)F)c3)CC2)C1` [Example 214, 4-{[(2R)-4-isopropylpiperazin-2-yl]carbonyl}-N-[3-(trifluoromethyl)phenyl]piperazine-1-carboxamide]: less than 10 µM.
Next, `O=C(Nc1ccc(Cl)cc1)N1CCN(C[C@@H]2CCCN(CCc3ccccc3)C2)CC1` [Example 181, N-(4-chlorophenyl)-4-{[(3R)-1-(2-phenylethyl)piperidin-3-yl]methyl} piperazine-1-carboxamide]: less than 10 µM; `CC(C)N1CCN[C@@H](C(=O)N2CCN(C(=O)Nc3ccc(Cl)c(F)c3)CC2)C1` [Example 265, N-(4-Chloro-3-fluorophenyl)-4-{[(2R)-4-isopropylpiperazin-2-yl]carbonyl}piperazine-1-carboxamide]: less than 10 µM.
`O=C(Nc1ccc(Cl)c(Cl)c1)N1CCN(C[C@@H]2CCCN(CCc3ccc(Cl)cc3)C2)CC1` [Example 154, 4-({(3R)-1-[2-(4-Chlorophenyl)ethyl]piperidin-3-yl}methyl)-N-(3,4-dichlorophenyl)piperazine-1-carboxamide]: the IC50 is less than 10 µM.
Under `CS(=O)(=O)c1ccc(CN2CCC[C@@H](CN3CCN(C(=O)Nc4ccc(Cl)c(Cl)c4)CC3)C2)c(Cl)c1` [Example 322, 4-({(3R)-1-[2-Chloro-4-(methylsulfonyl)benzyl]piperidin-3-yl}methyl)-N-(3,4-dichlorophenyl)piperazine-1-carboxamide] stands less than 10 µM; under `O=C(Nc1ccccc1)N1CCN(C[C@@H]2CCCN(CCc3c(Cl)cccc3Cl)C2)CC1` [Example 252, 4-[[(3R)-1-[2-(2,6-dichlorophenyl)ethyl]-3-piperidyl]methyl]-N-phenyl-piperazine-1-carboxamide], less than 10 µM.
Next, `CS(=O)(=O)c1ccc(CCCN2CCC[C@@H](CN3CCN(C(=O)Nc4ccc(Cl)cc4)CC3)C2)cc1` [Example 325, N-(4-Chlorophenyl)-4-[((3R)-1-{3-[4-(methylsulfonyl)phenyl]propyl}piperidin-3-yl)methyl]piperazine-1-carboxamide]: less than 10 µM; `COCCN1CCC[C@@H](CN2CCN(C(=O)Nc3ccc(Cl)c(Cl)c3)CC2)C1` [Example 113, N-(3,4-dichlorophenyl)-4-{[(3S)-1-(2-methoxyethyl)piperidin-3-yl]methyl}piperazine-1-carboxamide]: less than 10 µM; `O=C(Nc1ccc(Cl)c(C(F)(F)F)c1)N1CCN(C[C@@H]2CCCN(C3CC3)C2)CC1` [Example 186, N-[4-chloro-3-(trifluoromethyl)phenyl]-4-{[(3S)-1-cyclopropylpiperidin-3-yl]methyl}piperazine-1-carboxamide]: less than 10 µM.
Consider `CC(C)N1CC[C@@H](CN2CCN(C(=O)Nc3ccc(Cl)c(Cl)c3)CC2)C1` [Example 231, N-(3,4-dichlorophenyl)-4-{[(3S)-1-isopropylpyrrolidin-3-yl]methyl}piperazine-1-carboxamide], for which the IC50 was less than 10 µM.
Next, `CC(=O)N1CCC(N2CCC[C@@H](CN3CCN(C(=O)Nc4ccc(Cl)c(Cl)c4)CC3)C2)CC1` [Example 175, 4-{[(3S)-1′-Acetyl-1,4′-bipiperidin-3-yl]methyl}-N-(3,4-dichlorophenyl)piperazine-1-carboxamide]: less than 10 µM; `CS(=O)(=O)c1ccc(CCCN2CCC[C@@H](CN3CCN(C(=O)Nc4ccc(Cl)c(Cl)c4)CC3)C2)cc1` [Example 328, N-(3,4-Dichlorophenyl)-4-[((3R)-1-{3-[4-(methylsulfonyl)phenyl]propyl}piperidin-3-yl)methyl]piperazine-1-carboxamide]: less than 10 µM; `O=C(Nc1ccc(Cl)c(Cl)c1)N1CCN(C(=O)[C@H]2CN(CCc3ccccc3)CCN2)CC1` [Example 138, N-(3,4-Dichlorophenyl)-4-{[(2R)-4-(2-phenylethyl)piperazin-2-yl]carbonyl}piperazine-1-carboxamide]: less than 10 µM.
Next, `Cc1ccc(NC(=O)N2CCN(C[C@@H]3CCCN(CCCc4ccc(S(C)(=O)=O)cc4)C3)CC2)cc1Cl` [Example 324, N-(3-Chloro-4-methylphenyl)-4-[((3R)-1-{3-[4-(methylsulfonyl)phenyl]propyl}piperidin-3-yl)methyl]piperazine-1-carboxamide]: less than 10 µM; `O=C(Nc1ccc(Cl)c(Cl)c1)N1CCN(C[C@@H]2CCCN(Cc3cc[nH]n3)C2)CC1` [Example 34, N-(3,4-dichlorophenyl)-4-{[(3S)-1-(1H-pyrazol-3-ylmethyl)-piperidin-3-yl]methyl}piperazine-1-carboxamide]: less than 10 µM.
`Cc1ccc(NC(=O)N2CCN(C[C@H]3CN(C(C)C)CCO3)CC2)cc1Cl` [Example 187, N-(3-chloro-4-methylphenyl)-4-{[(2S)-4-isopropylmorpholin-2-yl]methyl}piperazine-1-carboxamide]: the IC50 is less than 10 µM.
Under `O=C(Nc1ccc(Cl)c(Cl)c1)N1CCN(C[C@@H]2CCCN(CC3CC3)C2)CC1` [Example 19, 4-{[(3R)-1-(cyclopropylmethyl)-piperidin-3-yl]methyl}-N-(3,4-dichlorophenyl)-piperazine-1-carboxamide] stands less than 10 µM.
Under `O=C(Nc1ccc(Cl)c(Cl)c1)N1CCN(C[C@@H]2CCCN(CCC3CCNCC3)C2)CC1` [Example 205, N-(3,4-Dichlorophenyl)-4-{[(3R)-1-(2-piperidin-4-ylethyl)piperidin-3-yl]methyl}piperazine-1-carboxamide] stands less than 10 µM.
Under `CC(=O)N1CCC(N2CCO[C@@H](CN3CCN(C(=O)Nc4ccc(Cl)c(Cl)c4)CC3)C2)CC1` [Example 120, 4-{[(2S)-4-(1-acetylpiperidin-4-yl)morpholin-2-yl]methyl}-N-(3,4-dichlorophenyl)piperazine-1-carboxamide] stands less than 10 µM.
As for `C[C@@H](CC(C)(C)O)N1CCO[C@@H](CN2CCN(C(=O)Nc3ccc(F)c(Cl)c3)CC2)C1` [Example 235, N-(3-chloro-4-fluorophenyl)-4-({(2S)-4-[(1S)-3-hydroxy-1,3-dimethylbutyl]morpholin-2-yl}methyl)piperazine-1-carboxamide], the IC50 is less than 10 µM.
Under `C=CCN1CCN[C@@H](C(=O)N2CCN(C(=O)Nc3ccc(Cl)c(Cl)c3)CC2)C1` [Example 303, N-(3,4-dichlorophenyl)-4-{[(2R)-4-(prop-2-en-1-yl)piperazin-2-yl]carbonyl}piperazine-1-carboxamide] stands less than 10 µM; under `O=C(Nc1ccc(Cl)c(Cl)c1)N1CCN(CC2CCCN(CC(O)c3cccc[n+]3[O-])C2)CC1` (stereo in doubt) [Example 267, N-(3,4-dichlorophenyl)-4-({(3R)-1-[2-hydroxy-2-(1-oxidopyridin-2-yl)ethyl]piperidin-3-yl}methyl)piperazine-1-carboxamide], less than 10 µM.
`O=C(Nc1ccc(Br)cc1)N1CCN(C[C@@H]2CCCN(C3CC3)C2)CC1` [Example 108, N-(4-bromophenyl)-4-{[(3S)-1-cyclopropylpiperidin-3-yl]methyl}piperazine-1-carboxamide]: the IC50 was less than 10 µM.
Next, `CN1CCCC(CN2CCN(C(=O)Nc3cc(Cl)cc(Cl)c3)CC2)C1` (centres unmarked) [Example 41, N-(3,5-dichlorophenyl)-4-[(1-methylpiperidin-3-yl)methyl]piperazine-1-carboxamide]: less than 10 µM.
For `O=C(Nc1ccc(Cl)c(Cl)c1)N1CCN(CC2CCCN(C3CC3)C2)CC1` (stereo in doubt) [Example 139, 1-{[(3R)-1-Cyclopropylpiperidin-3-yl]methyl}-N-(3,4-dichlorophenyl)piperazine-4-carboxamide], the IC50 is less than 10 µM.
`O=C(Nc1ccc(Cl)c(Cl)c1)N1CCN(C[C@H]2CCN([C@H]3CC[C@](O)(c4cccnc4)CC3)C2)CC1` [Example 228, N-(3,4-dichlorophenyl)-4-{[(3R)-1-(cis-4-hydroxy-4-pyridin-3-ylcyclohexyl)pyrrolidin-3-yl]methyl}piperazine-1-carboxamide]: the IC50 is less than 10 µM.

The values are drawn from patent US8710224B2, “Heterocyclic compounds as CCR2B antagonists” (AstraZeneca AB, priority 2004, dated 2014).
